Columns and labels:
Assay in all cases: Post-emergence test experiment (greenhouse pot, spray at 2-3 leaf stage)
Assay type in all cases: in vivo
Settings in all cases: 1000 g/ha; post-emergence spray at 2-3 leaf stage; assessed after 3 weeks; fresh weight inhibition rate
Monochoria vaginalis = test system: Monochoria vaginalis
Procedure, shortened: (§1)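 Activity graded levels 0-5 by fresh-weight inhibition (level 5 above 85%, level 0 below 5%), assessed 3 weeks after treatment. Plants grown in greenhouse pots were sprayed post-emergence at 2-3 leaves using acetone/tween-80 solutions with methyl oleate synergist (1.5 L/ha).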

Abutilon theophrasti = test system: Abutilon theophrasti
Procedure, shortened: as §1

Galium spurium = test system: Galium spurium
Procedure, shortened: as §1

Echinochloa crusgalli = test system: Echinochloa crusgalli
Procedure, shortened: as §1

Digitaria sanguinalis = test system: Digitaria sanguinalis
Procedure, shortened: as §1

Compound	Activity level (growth inhibition rate) Monochoria Vaginalis (Monochoria vaginalis)	Activity level (growth inhibition rate) Abutilon theophrasti (Abutilon theophrasti)	Activity level (growth inhibition rate) Galium spurium (Galium spurium)	Activity level (growth inhibition rate) Echinochloa crusgalli (Echinochloa crusgalli)	Activity level (growth inhibition rate) Digitaria sanguinalis (Digitaria sanguinalis)
CC(Oc1nc(F)c(Cl)c(N)c1Cl)C(=O)OCc1ccc(Cl)cc1 (centres unmarked) [Compound 204]	5 (Level 5: the growth inhibition rate is greater than 85%)	5 (Level 5: the growth inhibition rate is greater than 85%)	5 (Level 5: the growth inhibition rate is greater than 85%)	5 (Level 5: the growth inhibition rate is greater than 85%)	5 (Level 5: the growth inhibition rate is greater than 85%)
CC(Oc1nc(F)c(Cl)c(N)c1Cl)C(=O)OCc1ccccc1Br (centres unmarked) [Compound 205]	5 (Level 5: the growth inhibition rate is greater than 85%)	5 (Level 5: the growth inhibition rate is greater than 85%)	5 (Level 5: the growth inhibition rate is greater than 85%)	5 (Level 5: the growth inhibition rate is greater than 85%)	5 (Level 5: the growth inhibition rate is greater than 85%)
CC(Oc1nc(F)c(Cl)c(N)c1Cl)C(=O)OCc1cccc(Br)c1 (centres unmarked) [Compound 206]	5 (Level 5: the growth inhibition rate is greater than 85%)	5 (Level 5: the growth inhibition rate is greater than 85%)	5 (Level 5: the growth inhibition rate is greater than 85%)	5 (Level 5: the growth inhibition rate is greater than 85%)	5 (Level 5: the growth inhibition rate is greater than 85%)
CC(Oc1nc(F)c(Cl)c(N)c1Cl)C(=O)OCc1ccc(Br)cc1 (centres unmarked) [Compound 207]	5 (Level 5: the growth inhibition rate is greater than 85%)	5 (Level 5: the growth inhibition rate is greater than 85%)	5 (Level 5: the growth inhibition rate is greater than 85%)	5 (Level 5: the growth inhibition rate is greater than 85%)	5 (Level 5: the growth inhibition rate is greater than 85%)
CC(Oc1nc(F)c(Cl)c(N)c1Cl)C(=O)OCc1ccccc1C(F)(F)F (centres unmarked) [Compound 208]	5 (Level 5: the growth inhibition rate is greater than 85%)	5 (Level 5: the growth inhibition rate is greater than 85%)	5 (Level 5: the growth inhibition rate is greater than 85%)	5 (Level 5: the growth inhibition rate is greater than 85%)	5 (Level 5: the growth inhibition rate is greater than 85%)
CC(Oc1nc(F)c(Cl)c(N)c1Cl)C(=O)OCc1cccc(C(F)(F)F)c1 (centres unmarked) [Compound 209]	5 (Level 5: the growth inhibition rate is greater than 85%)	5 (Level 5: the growth inhibition rate is greater than 85%)	5 (Level 5: the growth inhibition rate is greater than 85%)	5 (Level 5: the growth inhibition rate is greater than 85%)	5 (Level 5: the growth inhibition rate is greater than 85%)
CC(Oc1nc(F)c(Cl)c(N)c1Cl)C(=O)OCc1ccc(C(F)(F)F)cc1 (centres unmarked) [Compound 210]	5 (Level 5: the growth inhibition rate is greater than 85%)	5 (Level 5: the growth inhibition rate is greater than 85%)	5 (Level 5: the growth inhibition rate is greater than 85%)	5 (Level 5: the growth inhibition rate is greater than 85%)	5 (Level 5: the growth inhibition rate is greater than 85%)
CC(Oc1nc(F)c(Cl)c(N)c1Cl)C(=O)OCc1cccc2ccccc12 (centres unmarked) [Compound 211]	5 (Level 5: the growth inhibition rate is greater than 85%)	5 (Level 5: the growth inhibition rate is greater than 85%)	5 (Level 5: the growth inhibition rate is greater than 85%)	5 (Level 5: the growth inhibition rate is greater than 85%)	5 (Level 5: the growth inhibition rate is greater than 85%)
CC(Oc1nc(F)c(Cl)c(N)c1Cl)C(=O)OCc1ccco1 (centres unmarked) [Compound 212]	5 (Level 5: the growth inhibition rate is greater than 85%)	5 (Level 5: the growth inhibition rate is greater than 85%)	5 (Level 5: the growth inhibition rate is greater than 85%)	5 (Level 5: the growth inhibition rate is greater than 85%)	5 (Level 5: the growth inhibition rate is greater than 85%)
CC(Oc1nc(F)c(Cl)c(N)c1Cl)C(=O)OCc1ccoc1 (centres unmarked) [Compound 213]	5 (Level 5: the growth inhibition rate is greater than 85%)	5 (Level 5: the growth inhibition rate is greater than 85%)	5 (Level 5: the growth inhibition rate is greater than 85%)	5 (Level 5: the growth inhibition rate is greater than 85%)	5 (Level 5: the growth inhibition rate is greater than 85%)
CC(Oc1nc(F)c(Cl)c(N)c1Cl)C(=O)OCc1cccs1 (centres unmarked) [Compound 214]	5 (Level 5: the growth inhibition rate is greater than 85%)	5 (Level 5: the growth inhibition rate is greater than 85%)	5 (Level 5: the growth inhibition rate is greater than 85%)	5 (Level 5: the growth inhibition rate is greater than 85%)	5 (Level 5: the growth inhibition rate is greater than 85%)
CC(Oc1nc(F)c(Cl)c(N)c1Cl)C(=O)OCc1ccsc1 (centres unmarked) [Compound 215]	5 (Level 5: the growth inhibition rate is greater than 85%)	5 (Level 5: the growth inhibition rate is greater than 85%)	5 (Level 5: the growth inhibition rate is greater than 85%)	5 (Level 5: the growth inhibition rate is greater than 85%)	5 (Level 5: the growth inhibition rate is greater than 85%)
CC(Oc1nc(F)c(Cl)c(N)c1Cl)C(=O)OCc1ccnn1C (centres unmarked) [Compound 216]	5 (Level 5: the growth inhibition rate is greater than 85%)	5 (Level 5: the growth inhibition rate is greater than 85%)	5 (Level 5: the growth inhibition rate is greater than 85%)	5 (Level 5: the growth inhibition rate is greater than 85%)	5 (Level 5: the growth inhibition rate is greater than 85%)

Source: US12049450B2, “Pyridyloxy-carboxylate derivative and preparation method therefor, herbicidal composition, and use” (Qingdao Kingagroot Chemical Compound Co., Ltd., priority 2018, dated 2024)
